System: DNFB-induced ear swelling
Test: Contact hypersensitivity model in mice (CHS), DNFB-induced ear swelling
Assay type: in vivo
Conditions: 30 mg/kg p.o., 30 minutes before challenge; DNFB-sensitized Balb/C mice; p<0.05 vs sensitized; FIG. 4
Protocol: Balb/C female mice of about 8-12 weeks of age (18-22 g b.w.) were used for the Contact Hypersensitivity model. They were from Charles River Italia (Calco, Italy) and housed under the following constant environmental conditions: temperature 22° C.±2, relative humidity 55%±10, 15-20 air changes per hour (filtered on HEPA 99.99%) and artificial light with a 12-hour circadian cycle (7 a.m.-7 p.m.). All in vivo studies were performed according to the European Council Directive 86/609/EEC and the Italian Ministry guidelines for the care and use of experimental animals (decree #116/92). All the experimental protocols were authorized by the Italian Ministry of Health.
All chemicals were purchased from Sigma-Aldrich (St. Louis, Mo., USA) unless otherwise specified. […]
For the induction of CHS, 8-12 weeks old Balb/C mice, were sensitized by applying once a sensitizing solution of 35 μl of 0.5% DNFB in acetone/olive oil (4:1) on the shaved back. […] Ear thickness was monitored using a caliper at day 0, at day 5 (4 h, 8 h), at day 6 (24 h) and at day 7 (48 h). […] Ear thickness of both ears was measured at three point each, ear swelling was evaluated according to the following formula: […]
All values in the text and figures are presented as mean±SEM of (n) independent experiments. All data were analysed by one-way ANOVA followed by Tukey test. […]

With `N#CC(c1ccnc(OCc2ccc(CN3CCOCC3)cc2)n1)c1nc2ccccc2s1` (stereo not shown) [JNK inhibitor, 1,3-benzothiazol-2-yl(2-{[4-(morpholin-4-ylmethyl)benzyl]oxy}pyrimidin-4-yl)acetonitrile] as the molecule, how does the ear swelling read?
The ear swelling was “significantly reduced ear swelling”.
